From PMC11017246, “Discovery of GLPG2737, a Potent Type 2 Corrector of CFTR for the Treatment of Cystic Fibrosis in Combination with a Potentiator and a Type 1 Co-corrector” (Journal of Medicinal Chemistry, 2024)
Several values for one entry are separate records, joined by “and”; a condition that tells them apart may be missing. Equal values may be shown once. Read-outs that look alike come from different tables or passages of the source.

Key:
[1] = Hepatocyte stability, dog; type: in vitro ADME; conditions: for CLint scaled at 1 μM: read-out: Hep CLint,u dog (converted)
Method: The hepatocyte stability assay was performed by incubation of test compound at 1 μM, 0.03% DMSO in modified Krebs–Henseleit buffer with suspension of pooled cryopreserved hepatocytes (BioIVT, Hicksville, NY, USA) from mouse, rat, dog, or human (BioIVT, Hicksville, NY, USA) at 0.5 million viable hepatocytes/mL. Before adding the hepatocytes (time zero) and after 10, 20, 45, 90, 120, and 180 min of incubation (n = 2) at 37 °C while gently shaking, the reaction was stopped and proteins were precipitated with an excess of acetonitrile containing an internal standard. The samples were mixed, centrifuged, and filtered, and the supernatant was analyzed by liquid chromatography–mass spectrometry/mass spectrometry (LC–MS/MS). The instrument responses (peak areas/IS peak areas) were referenced to the zero-time point samples (considered as 100%) in order to determine the percentage of compound remaining.

[2] = Plasma protein binding, human; type: in vitro ADME; conditions: for fraction unbound at 4 h, 5 μM: human, pH 7.4, human plasma, read-out: PPB % human (converted)
Method: (§1) Plasma protein binding was determined by equilibrium dialysis using the Pierce Red Device plate with inserts (ThermoScientific). Test compound at 5 μM (0.5% DMSO) spiked in freshly thawed human, rat, mouse, or dog plasma (Bioreclamation INC, Westbury, NY, USA) was dialyzed against phosphate-buffered saline (PBS, pH 7.4) at 37 °C under shaking for 4 h. Aliquots were taken from each side of the well, and matrix matched. Proteins were precipitated with an excess of acetonitrile, samples were mixed and centrifuged, and the supernatant was analyzed by liquid chromatography–mass spectrometry/mass spectrometry (LC–MS/MS). Addition of compound peak areas in the buffer chamber and the plasma chamber was considered to be 100% compound.

[3] = Plasma protein binding, rat; type: in vitro ADME; conditions: pH 7.4, read-out: PPB % rat (converted)
Method: as §1

[4] = PK dog; type: in vivo; conditions: for CLu dog: unbound clearance; for clearance: read-out: CLp dog (converted); for Vd: read-out: Vss dog
Method: These studies were performed with non-naïve male Beagle dogs (age 13.8 months old, origin: Marshall US, North Rose, NY 14516, USA; age 15.8 months old, origin: Harlan; age 17.7 months old, origin: Harlan). Dogs (n = 3) were dosed iv via a 10 min infusion via a catheter with a dose level of 1 mg/kg. After a washout of 3 days, they were dosed orally as a single gavage with a dose level of 5 or 1 mg/kg in PEG400/MC 0.5% or MC 0.5%. Before administration by the po route, animals were fasted for a period of at least 12 h before treatment, and food was given just after the 3 h of blood sampling. All animals had free access to tap water. Blood samples were taken without an anesthetic from a jugular or cephalic vein into tubes containing lithium heparin as an anticoagulant. Blood samples were taken up to 24 h after the start of the infusion. After centrifugation, the resulting plasma samples were assayed by LC-MS/MS with a nongood laboratory practice (non-GLP)-validated method. PK parameters were calculated by noncompartmental analysis using WinNonlin software (Certara, Princeton, NJ, USA).

[5] = PK rat; type: in vivo; conditions: for CLu rat: unbound clearance; for clearance: read-out: CLp rat (converted); for Vd: read-out: Vss rat
Method: These studies were performed with naïve male Sprague–Dawley rats (Janvier France, 6–8 weeks old). Rats were dosed iv via a bolus in the tail vein with a dose level of 0.1 mg/kg or orally as a single esophageal gavage with a dose level of 5 mg/kg. For the iv route, the compound was formulated in PEG200/water (60/40; v/v). For the oral route, the compound was formulated in MC 0.5% (2/98) as a homogeneous suspension. Before the oral dosing, the animals were deprived of food for at least 12 h before compound administration until 3 h after administration. All animals had free access to the tap water. Blood samples were collected under light anesthesia and placed into tubes containing Li-heparin as an anticoagulant. Blood samples were collected up to 24 h after dosing (n = 3 rats per route). After centrifugation, the resulting plasma samples were assayed by LC-MS/MS with a nongood laboratory practice (non-GLP)-validated method. PK parameters were calculated by noncompartmental analysis using WinNonlin software (Certara, Princeton, NJ, USA).

[6] = Plasma protein binding, dog; type: in vitro ADME; conditions: for fraction unbound at 4 h, 5 μM: dog, pH 7.4, dog plasma, read-out: PPB % dog (converted)
Method: as §1

[7] = male, beagle, plasma, 1 mg/kg, iv
[8] = male, Sprague-Dawley, plasma, 0.1 mg/kg, iv
[9] = male, Sprague-Dawley, plasma, 0.1 mg/kg, iv, read-out: t1/2 iv rat (converted)
[10] = male, Sprague-Dawley, plasma, iv, 0.1 mg/kg, iv

With `CN(C)S(=O)(=O)NC(=O)c1cc(N2CCC(N3CCOCC3)CC2)c2c(C3CCC3)nn(-c3ccc(F)cc3)c2n1` [Compound 51] the CLint scaled at 1 μM ([1]; pooled cryopreserved hepatocytes in suspension, dog hepatocytes) was 1.9 L/h/kg, the PPB % human ([2]; human plasma) was 99% and 98.7% and the fraction unbound at 4 h, 5 μM ([2]; plasma) was 0.02. It also gave a fraction unbound at 4 h, 5 μM [3] of 0.015, a CLu dog ([4]; iv) of 12.1 L/h/kg and a half-life at 24 h ([4]; male, beagle, plasma, 0.1 mg/kg, iv, read-out: t1/2 iv dog (converted)) of 4.9 h. The clearance [4, 7] was 0.16 L/h/kg, the Vd [4, 7] was 0.9 L/kg and the CLu rat ([5]; iv) was 13.2 L/h/kg. It also gave a clearance [5, 8] of 0.19 L/h/kg, a half-life at 24 h [5, 9] of 3.6 h and a Vd [5, 10] of 0.81 L/kg. For the same molecule, the PPB % dog ([6]; dog plasma) was 98,7% and the fraction unbound at 4 h, 5 μM ([6]; plasma) was 0.01.

In the case of `COC1CCN(C2CCN(c3cc(C(=O)NS(=O)(=O)N(C)C)nc4c3c(C3CCC3)nn4-c3ccc(F)cc3)CC2)CC1` [Compound 52, 3-Cyclobutyl-N-(N,N-dimethylsulfamoyl)-1-(4-fluorophenyl)-4-(4-methoxy-[1,4′-bipiperidin]-1′-yl)-1H-pyrazolo[3,4-b]pyridine-6-carboxamide], the “Hepatocyte stability: %LBF dog” value ([1]; dog hepatocytes) is reported as 14 %LBF, the “Hepatocyte stability: predicted hepCl dog” value ([1]; dog hepatocytes, 1 µM) is reported as less than 0.35 L/h/kg and the CLint scaled at 1 μM ([1]; dog, pooled cryopreserved dog hepatocytes in suspension) is reported as less than 1.49 L/h/kg. The fraction unbound at 4 h, 5 μM ([2]; human plasma) was 0.02, the fraction unbound at 4 h, 5 μM ([3]; rat) was 0.016 and the “F (%) dog” value ([4]; 5 mg/kg po) was 59.5%. It also gave a CLu dog ([4]; iv) of 10.7 L/h/kg, a clearance [4, 7] of 0.21 L/h/kg and a Vd [4, 7] of 1.37 L/kg. The half-life ([4]; male, beagle, plasma, 1 mg/kg, iv, read-out: t1/2 iv dog (converted)) was 5.4 h, the “F (%) rat” value ([5]; 30 mg/kg po) was 69.1% and the exposure versus dose ([5]; dose of 5 to 300 mg/kg) was “dose proportional increase in exposure”. For the same molecule, the CLu rat ([5]; iv) was 20 L/h/kg and 20.0 L/h/kg, the clearance [5, 8] was 0.32 L/h/kg and the half-life [5, 9] was 3.45 h. The Vd [5, 10] was 1.38 L/kg and the fraction unbound at 4 h, 5 μM ([6]; dog plasma) was 0.025.
